Reference: patent publication US8541575B2, “3,4-diarylpyrazoles as protein kinase inhibitors” (Nerviano Medical Sciences S.R.L., priority 2008, dated 2013)

What was measured:
Format in all cases: cell-based
[1] = system: human melanoma cells Mewo (with wild-type B-Raf); assay: In vitro cell proliferation assay, Mewo; conditions: 72 hours treatment, cellular ATP readout
Experimental: (§1) In Vitro Cell Proliferation Assay
(§2) Exponentially growing human melanoma cells A375 (with a mutated B-RAF) and human melanoma cells Mewo (with wild-type B-Raf) were seeded and incubated at 37° C. in a humidified 5% CO2 atmosphere. After 24 hours, scalar doses of the compound were added to the medium and cells oncubated for 72 hours. At the end of treatment, cells were washed and counted. Cell number was determined by a cellular adenosine triphosphate monitoring system. Cell proliferation was compared to control cells and the concentration inhibiting cell growth by 50% was calculated.

[2] = system: p-MAPK (T202/Y204) in A375 human melanoma cells, having a mutated B-RAF; assay: p-MAPK (T202/Y204) ArrayScan assay; conditions: A-375, treated 1.5 or 2 hours, p-MAPK cytoplasmatic fluorescence, read-out: Array Scan A375 IC50
Experimental: p-MAPK (T202/Y204) ArrayScan Assay
A375 human melanoma cells, having a mutated B-RAF, are seeded in 384-well poly-lysine coated plates (Matrix) at a density of 1000 cells/well with appropriate medium supplemented with 10% FCS and incubated for 16-24 hours. Cells are treated for 1.5 or 2 hours with increasing doses of compounds (starting dose 10 μM, dilution factor 2.5). At the end of the treatment cells are fixed with p-formaldehyde 3.7% for 15-30 min, then washed twice with D-PBS […] and permeabilized with D-PBS containing 0.1% Triton X-100 and 1% BSA (Sigma-Aldrich) for 15 minutes at room temperature (staining solution). Anti-phospho-MAPK (T202/Y204) monoclonal antibody E10 (Cell Signaling, cat. #9106) diluted 1:100 is added in staining solution and incubated for 1 hour at 37° C. After removal of the primary antibody solution, the anti-mouse Cy™2-conjugated (Green) secondary antibody (Amersham) diluted 1:500 in staining solution containing 2 μg/ml DAPI is added. The plate is incubated for 1 hour at 37° C., washed twice and then red with Cellomics' ArrayScan VTI (4 fields/well, CytoNucTrans algorithm).
The parameter “MEAN_RingAvgIntenCh2”, which measures the mean cytoplasmatic fluorescence intensity associated to p-MAPK staining, is reported as the final result.

[3] = system: human melanoma cells A375 (with a mutated B-RAF); assay: In vitro cell proliferation assay, A375; conditions: A-375, 72 hours treatment, cellular ATP readout
Experimental: as §1, §2

Row | SMILES | IC50 [1] | IC50 [2] | IC50 [3]
1 | O=C(Nc1ccc(C(F)(F)F)cc1)Nc1cccc(-c2n[nH]cc2-c2ccncc2)c1 [Cmpd. 1, 1-[3-(4-Pyridin-4-yl-1H-pyrazol-3-yl)-phenyl]-3-(4-trifluoromethyl-phenyl)-urea] | 8.6 µM | 0.93 µM | 1.02 µM
2 | O=S(=O)(Nc1cccc(-c2n[nH]cc2-c2ccncc2)c1)c1cc(F)ccc1F [Cmpd. 2, 2,5-Difluoro-N-[3-(4-pyridin-4-yl-1H-pyrazol-3-yl)-phenyl]-benzenesulfonamide] | > 10 µM | 0.64 µM | 1.4 µM
3 | CC(C)(C)c1ccc(NC(=O)c2cccc(-c3n[nH]cc3-c3ccncc3)c2)cc1 [Cmpd. 4, N-(4-tert-Butyl-phenyl)-3-(4-pyridin-4-yl-1H-pyrazol-3-yl)-benzamide] | 5.84 µM | 1.26 µM | 2.31 µM
4 | O=C(Nc1cccc(-c2nn(CCF)cc2-c2ccncc2)c1)Nc1ccc(Cl)c(C(F)(F)F)c1 [Cmpd. 5, 1-(4-Chloro-3-trifluoromethyl-phenyl)-3-{3-[1-(2-fluoro-ethyl)-4-pyridin-4-yl-1H-pyrazol-3-yl]-phenyl}-urea] | 6.76 µM | 2.09 µM | 4.31 µM
5 | O=S(=O)(Nc1cccc(-c2n[nH]cc2-c2ccncc2)c1)c1ccco1 [Cmpd. 6, Furan-2-sulfonic acid [3-(4-pyridin-4-yl-1H-pyrazol-3-yl)-phenyl]amide] | > 10 µM | 5.47 µM | 7.52 µM
6 | O=S(=O)(Nc1cccc(-c2n[nH]cc2-c2ccncc2)c1)c1ccsc1 [Cmpd. 7, Thiophene-3-sulfonic acid [3-(4-pyridin-4-yl-1H-pyrazol-3-yl)-phenyl]-amide] | > 10 µM | 5.52 µM | 7.38 µM
7 | O=C(Nc1ccc(C(F)(F)F)cc1)Nc1cccc(-c2nn(CCF)cc2-c2ccncc2)c1 [Cmpd. 13, 1-{3-[1-(2-Fluoro-ethyl)-4-pyridin-4-yl-1H-pyrazol-3-yl]-phenyl}-3-(4-trifluoromethyl-phenyl)-urea] | 8.11 µM | 0.56 µM | 1.38 µM
8 | O=C(Nc1ccc(C(F)(F)F)cc1)Nc1cccc(-c2nn(CCO)cc2-c2ccncc2)c1 [Cmpd. 14, 1-{3-[1-(2-Hydroxy-ethyl)-4-pyridin-4-yl-1H-pyrazol-3-yl]-phenyl}-3-(4-trifluoromethyl-phenyl)-urea] | > 10 µM | 2.63 µM | 6.94 µM
9 | O=C(Cc1ccc(C(F)(F)F)cc1)Nc1cccc(-c2n[nH]cc2-c2ccncc2)c1 [Cmpd. 16, N-[3-(4-Pyridin-4-yl-1H-pyrazol-3-yl)-phenyl]-2-(4-trifluoromethyl-phenyl)-acetamide] | > 10 µM | 1.34 µM | 2.89 µM
10 | CC(=O)Nc1cc(-c2c[nH]nc2-c2cccc(NC(=O)Nc3ccc(C(F)(F)F)cc3)c2)ccn1 [Cmpd. 17, N-[4-(3-{3-[3-(4-Trifluoromethyl-phenyl)-ureido]-phenyl}-1H-pyrazol-4-yl)-pyridin-2-yl]-acetamide] | 9.4 µM | < 0.04 µM | 0.25 µM
11 | O=S(=O)(Nc1ccc(F)c(-c2n[nH]cc2-c2ccncc2)c1F)c1cc(F)ccc1F [Cmpd. 18, N-[2,4-Difluoro-3-(4-pyridin-4-yl-1H-pyrazol-3-yl)-phenyl]-2,5-difluoro-benzenesulfonamide] | > 10 µM | 0.36 µM | 0.72 µM
12 | O=S(=O)(Nc1ccc(F)c(-c2n[nH]cc2-c2ccncc2)c1F)c1ccsc1 [Cmpd. 19, Thiophene-3-sulfonic acid [2,4-difluoro-3-(4-pyridin-4-yl-1H-pyrazol-3-yl)-phenyl]-amide] | > 10 µM | 0.83 µM | 3.17 µM
13 | O=S(=O)(Nc1ccc(F)c(-c2n[nH]cc2-c2ccncc2)c1F)c1ccco1 [Cmpd. 20, Furan-2-sulfonic acid [2,4-difluoro-3-(4-pyridin-4-yl-1H-pyrazol-3-yl)-phenyl]amide] | > 10 µM | 5.48 µM | 9.14 µM
14 | CCCS(=O)(=O)Nc1ccc(F)c(-c2n[nH]cc2-c2ccncc2)c1F [Cmpd. 21, Propane-1-sulfonic acid [2,4-difluoro-3-(4-pyridin-4-yl-1H-pyrazol-3-yl)-phenyl]-amide] | > 10 µM | 1.79 µM | 4.28 µM
15 | CCOC(=O)n1cc(-c2ccncc2)c(-c2cccc(NC(=O)Nc3ccc(C(F)(F)F)cc3)c2)n1 [Cmpd. 47, 4-Pyridin-4-yl-3-{3-[3-(4-trifluoromethyl-phenyl)-ureido]-phenyl}-pyrazole-1-carboxylic acid ethyl ester] | > 10 µM | 0.75 µM | 2.66 µM
16 | Cn1cc(-c2ccncc2)c(-c2cccc(NC(=O)Nc3ccc(C(F)(F)F)cc3)c2)n1 [Cmpd. 48, 1-[3-(1-Methyl-4-pyridin-4-yl-1H-pyrazol-3-yl)-phenyl]-3-(4-trifluoromethyl-phenyl)-urea] | > 10 µM | 1.79 µM | 3.86 µM
17 | CC(C)Cn1cc(-c2ccncc2)c(-c2cccc(NC(=O)Nc3ccc(C(F)(F)F)cc3)c2)n1 [Cmpd. 50, 1-[3-(1-Isobutyl-4-pyridin-4-yl-1H-pyrazol-3-yl)-phenyl]-3-(4-trifluoromethyl-phenyl)-urea] | 5.09 µM | 1.12 µM | 1.9 µM
18 | CCn1cc(-c2ccncc2)c(-c2c(F)ccc(NS(=O)(=O)c3cc(F)ccc3F)c2F)n1 [Cmpd. 51, N-[3-(1-Ethyl-4-pyridin-4-yl-1H-pyrazol-3-yl)-2,4-difluoro-phenyl]-2,5-difluoro-benzenesulfonamide] | > 10 µM | < 0.01 µM | < 0.02 µM
19 | CCn1cc(-c2ccncc2)c(-c2c(F)ccc(NS(=O)(=O)c3ccccc3F)c2F)n1 [Cmpd. 57, N-[3-(1-Ethyl-4-pyridin-4-yl-1H-pyrazol-3-yl)-2,4-difluoro-phenyl]-2-fluoro-benzenesulfonamide] | > 10 µM | 0.02 µM | 0.33 µM
20 | CCn1cc(-c2ccncc2)c(-c2c(F)ccc(NS(=O)(=O)c3cccc(F)c3)c2F)n1 [Cmpd. 58, N-[3-(1-Ethyl-4-pyridin-4-yl-1H-pyrazol-3-yl)-2,4-difluoro-phenyl]-3-fluoro-benzenesulfonamide] | > 10 µM | 0.04 µM | 0.29 µM
21 | Cc1ccc(NC(=O)Nc2cccc(-c3n[nH]cc3-c3ccncc3)c2)cc1 [compound 8, 1-[3-(4-Pyridin-4-yl-1H-pyrazol-3-yl)-phenyl]-3-p-tolyl-urea] | > 10 µM | 1.45 µM | 4.48 µM
22 | O=C(Nc1ccc(Cl)cc1)Nc1cccc(-c2n[nH]cc2-c2ccncc2)c1 [compound 9, 1-(4-Chloro-phenyl)-3-[3-(4-pyridin-4-yl-1H-pyrazol-3-yl)-phenyl]-urea] | > 10 µM | 4.8 µM | 4.1 µM
23 | CCn1cc(-c2ccncc2)c(-c2cccc(NC(=O)Nc3ccc(C(F)(F)F)cc3)c2)n1 [compound 10, 1-[3-(1-Ethyl-4-pyridin-4-yl-1H-pyrazol-3-yl)-phenyl]-3-(4-trifluoromethyl-phenyl)-urea] | 7.5 µM | 0.54 µM | 1.63 µM
24 | N#CCn1cc(-c2ccncc2)c(-c2cccc(NC(=O)Nc3ccc(C(F)(F)F)cc3)c2)n1 [compound 11, 1-[3-(1-Cyanomethyl-4-pyridin-4-yl-1H-pyrazol-3-yl)-phenyl]-3-(4-trifluoromethyl-phenyl)-urea] | 7.69 µM | 0.23 µM | 1.13 µM
25 | Nc1cc(-c2c[nH]nc2-c2cccc(NC(=O)Nc3ccc(C(F)(F)F)cc3)c2)ccn1 [compound 12, 1-{3-[4-(2-aminopyridin-4-yl)-1H-pyrazol-3-yl]phenyl}-3-[4(trifluoromethyl)-phenyl]urea] | > 10 µM | 4.65 µM | 5.96 µM
26 | Nc1nccc(-c2c[nH]nc2-c2cccc(NC(=O)Nc3ccc(C(F)(F)F)cc3)c2)n1 [compound 31, 1-{3-[4-(2-aminopyrimidin-4-yl)-1H-pyrazol-3-yl]phenyl}-3-[4-(trifluoromethyl)-phenyl]urea] | > 10 µM | 0.73 µM | 2.7 µM
27 | CC(=O)Nc1nccc(-c2c[nH]nc2-c2cccc(NC(=O)Nc3ccc(C(F)(F)F)cc3)c2)n1 [compound 32, N-(4-{3-[3-({[4-(trifluoromethyl)phenyl]carbamoyl}amino)phenyl]-1H-pyrazol-4-yl}pyrimidin-2-yl)acetamide] | > 10 µM | 2.51 µM | 5.32 µM
28 | Nc1nccc(-c2c[nH]nc2-c2cccc(NS(=O)(=O)c3cc(F)ccc3F)c2)n1 [compound 34, N-{3-[4-(2-aminopyrimidin-4-yl)-1H-pyrazol-3-yl]phenyl}-2,5-difluorobenzene-sulfonamide] | > 10 µM | 0.34 µM | 3.18 µM
